The values that follow come from PubChem BioAssay (NCI).

Some test systems named below: HCT-116 colon; IGROV1 ovarian; MALME-3M melanoma; NCI-H460 lung; OVCAR-3 ovarian; PC-3 prostate; RXF 393 renal; SK-MEL-2 melanoma; SK-OV-3 ovarian; SW-620 colon.
What all share (test): NCI-60 cell line screen, 48 h

“And” between values parts separate entries of the source, which are not always exact repeats. Equal values may be shown once.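 Following 48 hours of exposure in 96-well plates, responses at five concentrations were used to interpolate endpoints linearly. GI50 marks 50% less growth. Definition used: TGI = concentration required for complete inhibition of growth.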

With `CCOc1ccccc1C(=O)N1CCN(c2cc(Cl)cc(Cl)c2)CC1`, the GI50 with HCT-116 colon is 0.0325 µM; in the test with IGROV1 ovarian, 0.0408 µM; in the test on MALME-3M melanoma it was 0.624 µM; in the test with NCI-H460 lung, 0.0362 µM; with OVCAR-3 ovarian it was 0.0391 µM; in the test with PC-3 prostate it was 0.0346 µM. Also, the GI50 is 0.0175 µM in the test on RXF 393 renal, 1.13 µM in the test on SK-MEL-2 melanoma, 0.258 µM in the test with SK-OV-3 ovarian and 0.0415 µM in the test on SW-620 colon. The TGI in the test on HCT-116 colon was 4.02 µM; with IGROV1 ovarian it was 13.9 µM; in the test with MALME-3M melanoma, 22.9 µM; with NCI-H460 lung it was 11.9 µM; in the test with OVCAR-3 ovarian, 12.4 µM; in the test with PC-3 prostate, 12.6 µM. For the same compound, the TGI with RXF 393 renal was 1.06 µM; in the test on SK-MEL-2 melanoma it was 18.4 µM; in the test with SK-OV-3 ovarian, 9.14 µM; in the test on SW-620 colon, 15.8 µM.

Consider `COc1ccc2cc1Oc1ccc(cc1)C[C@H]1c3c(cc4c(c3Oc3cc5c(cc3OC)CCN(C)[C@@H]5C2)OCO4)CCN1C`, for which the GI50 in the test with HCT-116 colon is 0.726 µM; with IGROV1 ovarian, 5.42 µM; in the test on MALME-3M melanoma, 1.18 µM; with NCI-H460 lung, 2.82 µM; with OVCAR-3 ovarian, 5.38 µM; in the test with PC-3 prostate, 2.08 µM. Moreover, the GI50 is 0.628 µM in the test with RXF 393 renal, 4.13 µM with SK-MEL-2 melanoma, 6.23 µM in the test on SK-OV-3 ovarian and 2.11 µM with SW-620 colon. The TGI is 6.8 µM in the test on HCT-116 colon; 12.9 µM in the test with IGROV1 ovarian; 3.01 µM with MALME-3M melanoma; 9.03 µM in the test on NCI-H460 lung; 15 µM in the test on OVCAR-3 ovarian; 11.4 µM with PC-3 prostate. Moreover, the TGI was determined as 1.69 µM in the test on RXF 393 renal, 11.2 µM in the test on SK-MEL-2 melanoma, 12.5 µM in the test with SK-OV-3 ovarian and 8.47 µM in the test on SW-620 colon.

On to `C[C@@H]1CN(Cc2ccc(F)cc2)[C@@H](C)CN1C(=O)c1cc2c(C(=O)C(=O)N(C)C)cn(C)c2cc1Cl`, for which the GI50 was 21.6 µM in the test with HCT-116 colon; 19.5 µM in the test with IGROV1 ovarian; 17.2 µM in the test on MALME-3M melanoma; 16.8 µM in the test with NCI-H460 lung; 18.7 µM in the test with OVCAR-3 ovarian; 18.9 µM with PC-3 prostate. Moreover, the GI50 with RXF 393 renal was 12.3 µM; in the test on SK-MEL-2 melanoma, 17 µM; with SK-OV-3 ovarian, 22.7 µM; in the test with SW-620 colon, 24 µM. Besides, the TGI was more than 71.9 µM in the test with HCT-116 colon; 49.7 µM in the test on IGROV1 ovarian; 37.7 µM with MALME-3M melanoma; 37.4 µM in the test with NCI-H460 lung; 39.2 µM with OVCAR-3 ovarian; more than 77.7 µM in the test on PC-3 prostate. Moreover, the TGI was 27.6 µM with RXF 393 renal, 36.3 µM in the test on SK-MEL-2 melanoma, more than 79.6 µM in the test with SK-OV-3 ovarian and more than 84.9 µM in the test with SW-620 colon.

In the case of `COc1cc(N2C(=O)[C@H](O)C2c2ccc(SC)cc2)cc(OC)c1OC` (stereo partly drawn), the GI50 in the test with HCT-116 colon is less than 0.01 µM; in the test with IGROV1 ovarian, less than 0.01 µM; with MALME-3M melanoma it was 21.6 µM; with NCI-H460 lung, less than 0.01 µM; with OVCAR-3 ovarian, less than 0.01 µM; in the test with PC-3 prostate, less than 0.01 µM. In addition, the GI50 with RXF 393 renal was less than 0.01 µM; in the test with SK-MEL-2 melanoma, less than 0.01 µM; in the test on SK-OV-3 ovarian it was 0.0142 µM; with SW-620 colon, less than 0.01 µM. The TGI with HCT-116 colon was more than 100 µM; with IGROV1 ovarian, more than 100 µM; with MALME-3M melanoma, 74 µM; with NCI-H460 lung it was 13.1 µM; with OVCAR-3 ovarian, 0.0138 µM; in the test on PC-3 prostate, more than 100 µM. Further, the TGI in the test with RXF 393 renal, in the test on SK-MEL-2 melanoma, with SK-OV-3 ovarian and with SW-620 colon was more than 100 µM throughout.

In the case of `CCCN(CCS(C)(=O)=O)Cc1ccc(-c2ccc3ncnc(Nc4ccc(OCc5cccc(F)c5)c(Cl)c4)c3c2)o1`, the GI50 with HCT-116 colon was more than 25 µM; in the test on IGROV1 ovarian, 16.5 µM; in the test with MALME-3M melanoma, more than 25 µM; with NCI-H460 lung it was more than 25 µM; with OVCAR-3 ovarian it was more than 22.9 µM; with PC-3 prostate, more than 25 µM. Moreover, the GI50 with RXF 393 renal is 24.9 µM; in the test on SK-MEL-2 melanoma, more than 25 µM; with SK-OV-3 ovarian, 0.0197 µM; in the test on SW-620 colon it was more than 25 µM. The TGI in the test on HCT-116 colon, in the test on IGROV1 ovarian, in the test with MALME-3M melanoma, in the test with NCI-H460 lung, in the test with OVCAR-3 ovarian and in the test on PC-3 prostate was more than 25 µM throughout. Moreover, the TGI was more than 25 µM with RXF 393 renal, more than 25 µM with SK-MEL-2 melanoma, 0.192 µM in the test with SK-OV-3 ovarian and more than 25 µM in the test on SW-620 colon.

Regarding `N#Cc1c(N2CCOCC2)nc(=S)[nH]c1-c1ccco1`, the GI50 with HCT-116 colon was 15.6 µM; in the test on IGROV1 ovarian, 1.86 µM; with MALME-3M melanoma it was 2.18 µM; in the test with NCI-H460 lung it was 4.4 µM; with OVCAR-3 ovarian, 7.93 µM; in the test on PC-3 prostate it was 0.19 µM. The GI50 with RXF 393 renal is 12.9 µM; in the test on SK-MEL-2 melanoma it was 2.38 µM; with SK-OV-3 ovarian it was 2.72 µM; in the test on SW-620 colon, 23.5 µM. Further, the TGI in the test on HCT-116 colon was more than 100 µM; in the test with IGROV1 ovarian it was 13 µM; in the test on MALME-3M melanoma, 8.18 µM; in the test on NCI-H460 lung, more than 100 µM; in the test on OVCAR-3 ovarian it was 49.8 µM; with PC-3 prostate it was 3.17 µM. Besides, the TGI in the test with RXF 393 renal is more than 100 µM; in the test with SK-MEL-2 melanoma, 33.6 µM; in the test on SK-OV-3 ovarian, 14.7 µM; in the test on SW-620 colon, more than 100 µM.

For `NC(=O)c1csc(C2OC(CO)C(O)C2O)n1` (stereo not drawn), the TGI was 6870 µM in the test on HCT-116 colon; 5650 µM in the test with IGROV1 ovarian; more than 7980 µM in the test on MALME-3M melanoma; more than 10000 µM in the test with NCI-H460 lung; 7030 µM in the test with OVCAR-3 ovarian; 2560 µM in the test on PC-3 prostate. Also, the TGI in the test with RXF 393 renal is 6320 µM; in the test on SK-MEL-2 melanoma, 6440 µM; in the test with SK-OV-3 ovarian, more than 5120 µM; with SW-620 colon it was 5900 µM. The GI50 in the test with IGROV1 ovarian was more than 72.8 µM; in the test on OVCAR-3 ovarian, 22.2 µM; in the test on PC-3 prostate, 29.5 µM; in the test on SK-OV-3 ovarian, 79.9 µM; with SW-620 colon, 30.6 µM.

Take `O=C(O)CN1CCN(CC(=O)O)CC(=O)[O][Hg][O]C(=O)C1`: the GI50 in the test on HCT-116 colon is 17.9 µM; in the test with IGROV1 ovarian it was 7.29 µM; in the test with MALME-3M melanoma, 16.6 µM; with NCI-H460 lung it was 19.8 µM; in the test with OVCAR-3 ovarian it was 16.9 µM; in the test on PC-3 prostate it was 16.5 µM. In addition, the GI50 in the test with RXF 393 renal was 18.1 µM; in the test with SK-MEL-2 melanoma, 15.5 µM; with SK-OV-3 ovarian, more than 92.2 µM; in the test with SW-620 colon, 19.6 µM. Also, the TGI in the test on HCT-116 colon was 33.7 µM; in the test on IGROV1 ovarian it was 28.4 µM; in the test with MALME-3M melanoma, 33 µM; in the test on NCI-H460 lung, more than 54.2 µM; in the test on OVCAR-3 ovarian, 30.6 µM; in the test with PC-3 prostate, 30.5 µM. The TGI in the test with RXF 393 renal was 32.5 µM; with SK-MEL-2 melanoma it was 29.6 µM; with SK-OV-3 ovarian, more than 100 µM; in the test on SW-620 colon, 52.7 µM.

Take `Nc1nc(OCc2ccccc2)c2[nH]cnc2n1`: the GI50 is 34.7 µM and 34.5 µM in the test on HCT-116 colon; 25.3 µM and 9.01 µM with IGROV1 ovarian; 28 µM and 23.3 µM in the test on MALME-3M melanoma; 35.8 µM and 37.6 µM with NCI-H460 lung; 33.9 µM in the test on OVCAR-3 ovarian; 53.7 µM in the test on PC-3 prostate. Further, the GI50 with RXF 393 renal was 14.4 µM and 22.1 µM; in the test on SK-MEL-2 melanoma it was 25.1 µM; with SK-OV-3 ovarian it was 21.8 µM and 20.8 µM; in the test on SW-620 colon it was 98.5 µM. Also, the TGI in the test with HCT-116 colon was 209 µM and 137 µM; in the test on IGROV1 ovarian, 93.3 µM and 271 µM and 34.4 µM; with MALME-3M melanoma, 264 µM and 136 µM; in the test on NCI-H460 lung, 400 µM and 195 µM; in the test with OVCAR-3 ovarian it was 400 µM and 284 µM; in the test with PC-3 prostate, 628 µM. Also, the TGI is 94.5 µM and 169 µM and 145 µM in the test on RXF 393 renal; 177 µM in the test with SK-MEL-2 melanoma; 71.9 µM and 160 µM and 60 µM in the test on SK-OV-3 ovarian; 400 µM and 289 µM in the test on SW-620 colon.

In the case of `CC(C)C[C@H](NC(=O)CNC(=O)c1cc(Cl)ccc1Cl)B1OC(=O)CC(CC(=O)O)(C(=O)O)O1` (stereo partly drawn), the GI50 was 0.0267 µM in the test on HCT-116 colon; 0.231 µM in the test on IGROV1 ovarian; 0.0329 µM with MALME-3M melanoma; 0.231 µM in the test with NCI-H460 lung; 0.0269 µM in the test with OVCAR-3 ovarian; 0.105 µM in the test with PC-3 prostate. The GI50 with RXF 393 renal is 0.0193 µM; in the test on SK-MEL-2 melanoma, 0.0399 µM; in the test with SK-OV-3 ovarian, 0.261 µM; in the test with SW-620 colon, 0.0364 µM. The TGI with HCT-116 colon is 0.0711 µM; with IGROV1 ovarian it was more than 41.8 µM; in the test on MALME-3M melanoma, 0.412 µM; in the test on OVCAR-3 ovarian, 0.0791 µM; in the test on PC-3 prostate, 1.82 µM; in the test on RXF 393 renal it was 0.0438 µM. The values for the TGI with SK-MEL-2 melanoma and in the test with SK-OV-3 ovarian were 0.239 µM and 29.6 µM, respectively.

`CC1=C2[C@@H](CC1)[C@]1(C)O[C@@](c3ccccc3)(C[C@H]1OC(=O)CO)[C@H]2OC(=O)/C=C/c1ccccc1`: the GI50 in the test on HCT-116 colon was 15.4 µM; in the test on IGROV1 ovarian it was 24.3 µM; in the test on MALME-3M melanoma, 20.1 µM; in the test on NCI-H460 lung, 16 µM; with OVCAR-3 ovarian, 15 µM; with PC-3 prostate it was 8.56 µM. Also, the GI50 in the test on RXF 393 renal is 0.0388 µM; in the test with SK-MEL-2 melanoma, 16.8 µM; in the test on SK-OV-3 ovarian it was 19 µM; with SW-620 colon, 21.9 µM. Also, the TGI is 31.6 µM in the test with HCT-116 colon; 62.4 µM with IGROV1 ovarian; 42.8 µM with MALME-3M melanoma; 38.2 µM with NCI-H460 lung; 30.6 µM with OVCAR-3 ovarian; 31.5 µM in the test with PC-3 prostate. Further, the TGI in the test with RXF 393 renal is 1.31 µM; with SK-MEL-2 melanoma, 38.4 µM; in the test with SK-OV-3 ovarian, 44.8 µM; in the test on SW-620 colon, 60 µM.
